The source of these data is patent US20120010075A1 (priority 2009, published 2012).

The test system of series [1] is Leptosphaeria nodorum (LEPTNO). Description: In vitro fungitoxicity of hydrazones with and without copper towards Leptosphaeria nodorum (Example 26). It counts as cell-based. The settings on record: test compound Concn. 0.05 μg/mL, 72 h at 25° C.; for inhibition of growth at 0.05 µg/mL: Parastagonospora nodorum, 72 h, copper-minus medium, read-out: LEPTNO % Inhn. Minus Copper Observed; for LEPTNO % Inhn. Plus Copper Observed: copper-plus medium (CuCl2 10 μM).

A further series has as its system Phytophthora infestans. In kind it is in vivo, Phytophthora infestans on tomato. The settings on record: hydrazone 50 ppm with 50 μM CuCl2.2H2O, applied 24 h before inoculation; assessed 7 days after inoculation; tomato late blight.

Usually melting point stands for the temperature, or range, at which the solid turns liquid. Turning to `N#Cc1ccc(C(=O)N/N=C/c2cc(Cl)cc(Cl)c2O)cc1` [Example 310], the melting point is 234 to 270 °C. Also, in series [1], the inhibition of growth at 0.05 µg/mL came out at 2.4% and the “LEPTNO % Inhn. Plus Copper Observed” value turned out to be 96.6%. In addition, the “TLB % Control” value with Phytophthora infestans came out at 64.0%.

The compound `C/C(=N\NC(=O)c1ccccc1)c1cc(C)ccc1O` [Example 311] yielded a melting point of 197 to 199 °C. In series [1], the inhibition of growth at 0.05 µg/mL was 3.3% and the “LEPTNO % Inhn. Plus Copper Observed” value is given as 98.3%. Moreover, the “TLB % Control” value with Phytophthora infestans was 37.0%.

In turn, `C/C(=N\NC(=O)c1ccccc1C)c1cc(C)ccc1O` [Example 312] had a melting point of 154 to 156 °C. For the same compound, in series [1], the inhibition of growth at 0.05 µg/mL amounted to 3.8% and the “LEPTNO % Inhn. Plus Copper Observed” value is 97.8%. The “TLB % Control” value in the series on Phytophthora infestans amounted to 1.4%.

Compound `C/C(=N\NC(=O)c1cccc(C)c1)c1cc(C)ccc1O` [Example 313] had a melting point of 182 to 184 °C. Moreover, in series [1], the inhibition of growth at 0.05 µg/mL was determined as 8.5% and the “LEPTNO % Inhn. Plus Copper Observed” value turned out to be 98.5%. Also, in the series with Phytophthora infestans, the “TLB % Control” value turned out to be 28.0%.

Compound `C/C(=N\NC(=O)c1ccc(C)cc1)c1cc(C)ccc1O` [Example 314] displayed a melting point of 206 to 208 °C. In series [1], the inhibition of growth at 0.05 µg/mL was determined as 0% and the “LEPTNO % Inhn. Plus Copper Observed” value came to 97.7%. The “TLB % Control” value with Phytophthora infestans turned out to be 8.8%.

As for `C/C(=N\NC(=O)c1ccccc1Cl)c1cc(C)ccc1O` [Example 315], the melting point is 154 to 158 °C. In series [1], the inhibition of growth at 0.05 µg/mL was 2.7% and the “LEPTNO % Inhn. Plus Copper Observed” value came out at 95.8%. Further, in the series with Phytophthora infestans, the “TLB % Control” value is given as 18.0%.

For the compound `C/C(=N\NC(=O)c1cccc(Cl)c1)c1cc(C)ccc1O` [Example 316], the melting point is 231 to 241 °C. Also, in series [1], the inhibition of growth at 0.05 µg/mL was 4.5% and the “LEPTNO % Inhn. Plus Copper Observed” value is listed as 97.1%. Further, in the series on Phytophthora infestans, the “TLB % Control” value was determined as 14.0%.

In turn, `C/C(=N\NC(=O)c1ccc(Cl)cc1)c1cc(C)ccc1O` [Example 317] showed a melting point of 203 to 210 °C. In addition, in series [1], the inhibition of growth at 0.05 µg/mL is 16.3% and the “LEPTNO % Inhn. Plus Copper Observed” value came out at 97.9%. In addition, in the series with Phytophthora infestans, the “TLB % Control” value amounted to 24.0%.

`O=C(N/N=C/c1cc(Cl)c(C(F)(F)F)cc1O)c1ccccc1` [Example 318] showed a melting point of 242 to 243 °C. Further, in series [1], the inhibition of growth at 0.05 µg/mL came out at 3.1% and the “LEPTNO % Inhn. Plus Copper Observed” value came out at 97.3%. In addition, the “TLB % Control” value in the series on Phytophthora infestans amounted to 71.2%.

Turning to `O=C(N/N=C/c1c(C(F)(F)F)ccc(Cl)c1O)c1ccccc1` [Example 319], the melting point lay in the range of 216 to 218 °C. Moreover, in series [1], the inhibition of growth at 0.05 µg/mL came out at 18.1% and the “LEPTNO % Inhn. Plus Copper Observed” value came out at 96.6%. The “TLB % Control” value in the series with Phytophthora infestans was found to be 78.0%.

The compound `Cc1cccc(C(=O)N/N=C/c2cc(C(F)(F)F)cc(Cl)c2O)c1` [Example 321] gave a melting point of 204 to 206 °C. In addition, in series [1], the inhibition of growth at 0.05 µg/mL was 11.7% and the “LEPTNO % Inhn. Plus Copper Observed” value is listed as 96.6%. Also, the “TLB % Control” value in the series with Phytophthora infestans is given as 100.0%.

Consider `Cc1ccc(C(=O)N/N=C/c2cc(C(F)(F)F)cc(Cl)c2O)cc1` [Example 322], for which the melting point was 269 to 271 °C. In series [1], the inhibition of growth at 0.05 µg/mL was 20.9% and the “LEPTNO % Inhn. Plus Copper Observed” value was determined as 97.9%. The “TLB % Control” value in the series on Phytophthora infestans is on record as 95.0%.

Take `O=C(N/N=C/c1cc(C(F)(F)F)cc(Cl)c1O)c1cccc(F)c1` [Example 323]: the melting point lay within 210 to 212 °C. Besides, in series [1], the inhibition of growth at 0.05 µg/mL stood at 16.1% and the “LEPTNO % Inhn. Plus Copper Observed” value was determined as 98.1%. The “TLB % Control” value in the series with Phytophthora infestans was 100.0%.

The compound `O=C(N/N=C/c1cc(C(F)(F)F)cc(Cl)c1O)c1ccc(F)cc1` [Example 324] had a melting point of 200 to 202 °C. Further, in series [1], the inhibition of growth at 0.05 µg/mL came to 2.3% and the “LEPTNO % Inhn. Plus Copper Observed” value is reported as 96.3%. The “TLB % Control” value in the series with Phytophthora infestans stood at 98.0%.

Compound `O=C(N/N=C/c1cc(C(F)(F)F)cc(Cl)c1O)c1cccc(Cl)c1` [Example 325] had a melting point of 210 to 212 °C. In series [1], the inhibition of growth at 0.05 µg/mL worked out at 0% and the “LEPTNO % Inhn. Plus Copper Observed” value is recorded as 95.7%. Also, in the series on Phytophthora infestans, the “TLB % Control” value was 100.0%.

In the case of `O=C(N/N=C/c1cc(C(F)(F)F)cc(Cl)c1O)c1ccc(Cl)cc1` [Example 326], the melting point lay in the range of 208 to 210 °C. In series [1], the inhibition of growth at 0.05 µg/mL came to 6.9% and the “LEPTNO % Inhn. Plus Copper Observed” value is 95.6%. Further, the “TLB % Control” value in the series on Phytophthora infestans is on record as 93.0%.

For `O=C(N/N=C/c1cc(C(F)(F)F)cc(Cl)c1O)c1cccc([N+](=O)[O-])c1` [Example 327], the melting point is 237 to 238 °C. Also, in series [1], the inhibition of growth at 0.05 µg/mL was found to be 1.2% and the “LEPTNO % Inhn. Plus Copper Observed” value is recorded as 95.7%. Moreover, in the series on Phytophthora infestans, the “TLB % Control” value is reported as 98.0%.

Take `O=C(N/N=C/c1cc(C(F)(F)F)cc(Cl)c1O)c1ccc([N+](=O)[O-])cc1` [Example 328]: the melting point was 253 to 255 °C. Moreover, in series [1], the inhibition of growth at 0.05 µg/mL was 0% and the “LEPTNO % Inhn. Plus Copper Observed” value came out at 95.1%. Further, the “TLB % Control” value with Phytophthora infestans worked out at 99.0%.

Take `O=C(N/N=C/c1cc(C(F)(F)F)cc(Cl)c1O)c1ccccc1C(F)(F)F` [Example 330]: the melting point is 169 to 171 °C. In series [1], the inhibition of growth at 0.05 µg/mL was found to be 5.3% and the “LEPTNO % Inhn. Plus Copper Observed” value stood at 92.9%. Further, the “TLB % Control” value with Phytophthora infestans is 99.0%.

`Cc1ccc(C(=O)N/N=C/c2cc(C(F)(F)F)cc(Cl)c2O)c(O)c1` [Example 331] yielded a melting point of 255 to 257 °C. Further, in series [1], the inhibition of growth at 0.05 µg/mL is 22.8% and the “LEPTNO % Inhn. Plus Copper Observed” value is 97.8%. In addition, the “TLB % Control” value in the series on Phytophthora infestans is on record as 100.0%.

With `Cc1cccc(C(=O)N/N=C/c2cc(C(F)(F)F)cc(C(F)(F)F)c2O)c1` [Example 332], the melting point was in the range of 210 to 213 °C. Besides, in series [1], the inhibition of growth at 0.05 µg/mL was determined as 2% and the “LEPTNO % Inhn. Plus Copper Observed” value is recorded as 93.9%. Moreover, the “TLB % Control” value in the series with Phytophthora infestans is 89.0%.

`Cc1ccc(C(=O)N/N=C/c2cc(C(F)(F)F)cc(C(F)(F)F)c2O)cc1` [Example 333]: the melting point fell in the range of 274 to 277 °C. For the same compound, in series [1], the inhibition of growth at 0.05 µg/mL is 16.2% and the “LEPTNO % Inhn. Plus Copper Observed” value was found to be 93.2%. The “TLB % Control” value with Phytophthora infestans is recorded as 85.0%.

Consider `O=C(N/N=C/c1cc(C(F)(F)F)cc(C(F)(F)F)c1O)c1cccc(F)c1` [Example 334], for which the melting point lay within 240 to 242 °C. For the same compound, in series [1], the inhibition of growth at 0.05 µg/mL was 10.9% and the “LEPTNO % Inhn. Plus Copper Observed” value is given as 97.8%. Further, the “TLB % Control” value with Phytophthora infestans was determined as 98.0%.

Regarding `O=C(N/N=C/c1cc(C(F)(F)F)cc(C(F)(F)F)c1O)c1ccc(F)cc1` [Example 335], the melting point fell in the range of 226 to 228 °C. Also, in series [1], the inhibition of growth at 0.05 µg/mL came out at 10.2% and the “LEPTNO % Inhn. Plus Copper Observed” value was 96.8%. Further, the “TLB % Control” value in the series on Phytophthora infestans was 95.0%.

With `O=C(N/N=C/c1cc(C(F)(F)F)cc(C(F)(F)F)c1O)c1cccc(Cl)c1` [Example 336], the melting point was in the range of 230 to 233 °C. Also, in series [1], the inhibition of growth at 0.05 µg/mL came to 16.6% and the “LEPTNO % Inhn. Plus Copper Observed” value is 97.8%. Moreover, in the series with Phytophthora infestans, the “TLB % Control” value was found to be 98.0%.
